Results on 14 compounds are retold here after patent US11299493B2, “Heterocyclic compounds and uses thereof” (NUVATION BIO INC., priority 2017, dated 2022).

The test system of one experiment is A549 cells. Nature of the experiment: Cytotoxicity assay (resazurin) in A549 cells. Format: cell-based. The note with it: Homo sapiens, A549, 96 hr, read-out: Cell Viability IC50 A549. The procedure:
(§1) Cells were allowed to grow at 37° C. for 24 hr in 5% CO2 environment (culture conditions) in a Nuaire incubator (humidified). Serially diluted test compounds (100 μL) within the desired testing concentration ranges were added to the culture plate were further incubated in culture conditions for 72 hr and 96 hr for A427 and A549 respectively. The experiment was terminated at the designated incubation time by replacing the medium with 100 μL of 1 mM of resazurin (R7017; Sigma) prepared in respective culture medium, and the plates were further incubated in culture conditions for 4-6 hr. Fluorescence was recorded using a multimodal plate reader (Biotek Synergy Neo) at an excitation wavelength of 535 nm and emission wavelength of 590 nm to obtain relative fluorescence units. Data analysis was done by subtracting the background fluorescence (only medium blank) value from each reading and then normalizing with the vehicle control (DMSO treated cells) to obtain percent survival/proliferation. Percent survival was then subtracted by 100 to get the percent inhibition of proliferation which was used to calculate IC50 values.
For orientation: Alamar Blue is a resazurin reagent that responds to reducing activity.

The next experiment addresses WEE1 kinase enzyme (Homo sapiens (Human), UniProt P30291). Nature of the experiment: WEE1 IC50 determination, LanthaScreen Terbium Labeled TR-FRET kinase assay. The note with it: WEE1 enzyme 1 nM, ATP 10 μM, 1 h. The class given is biochemical. The procedure: IC50 values of compounds against WEE1 kinase enzyme were determined by LanthaScreen™ Terbium Labeled TR-FRET assay. […] After 1 h, […] stop solution containing Terbium labeled antibody (4 nM) (#PV3529, Invitrogen, Life Technologies Grand Island, N.Y.) and EDTA (#E5134, Sigma, St-Louis, Mo.) (20 mM) in TR-FRET dilution buffer (#PV3574, Invitrogen, Life Technologies Grand Island, N.Y.) was added. Readings were taken in a Synergy Neo Plate reader (BioTek, Winooski) at single excitation of 340 nm and Dual emission at 495 nm and 520 nm respectively.
The % activity of test samples was calculated as (Sample−Min)*100/(Max−Min). [Max: DMSO control, complete reaction with enzyme & DMSO and Min: No enzyme & DMSO].
A general note: In TR-FRET formats the signal depends on donor and acceptor labels being close together.

Experiment [1] deals with A427 cells. Nature of the experiment: Cell proliferation assay (Cell Titer-Glo) in A427 cells. The note with it: Homo sapiens, A-427, typically 72 h. Format: cell-based. The procedure: The effects of test compounds were studied in five cell lines with various histotypes. The cancer cells (Table 4) were harvested during the logarithmic growth period and counted. Adjust cell concentrations to the appropriated number with respective medium, and add 90 μL cell suspensions to 96-well plates. After cells were seeded, the plates were shaken gently to distribute cells evenly and incubated at 37° C., 5% CO2 on day 1.
Cell viability data were plotted using GraphPad Prism (version 5, GraphPad Software, Inc., San Diego, Calif.). In addition, a nonlinear regression model with a sigmoidal dose response and variable slope within GraphPad Prism was used to calculate the IC50 value of individual test compounds.
(In general: In ATP-based viability assays light output follows the ATP content of the culture.)

Experiment [2] concerns A427 cells. As to the kind of experiment: Cytotoxicity assay (resazurin) in A427 cells. The class given is cell-based. To be noted: Homo sapiens, A-427, 72 h, A427, 72 hr, read-out: Cell Viability IC50 A427. The procedure: as §1
Experiment [3] deals with A427 cells. As to the kind of experiment: Activity of compounds in combination with cisplatin in A427 cells (resazurin). The class given is cell-based. The note with it: Homo sapiens, A-427, 24 hr 2.5 μM cisplatin. As for the experimental part: The activity of test compounds in combination with cisplatin in A427 cells was determined. Cells were seeded in a 96 well plate at 2000 cells/well. The next day, cells were treated with 2.5 μM cisplatin or vehicle (1×PBS) and incubated in culture conditions (37° C., 5% CO2) for 24 hr. Following the incubation, culture medium was replaced with medium containing test compound and cisplatin/vehicle, and cells were further incubated in culture conditions for another 72 hr. By this procedure, cisplatin was either continued or discontinued after an initial 24-hr incubation. Addition of test compound was in concentrations needed to obtain an 8-point dose response curve, with concentrations prepared by 3-fold dilution. The assay was terminated upon addition of resazurin, incubation for 4 hr in culture conditions and measurement of fluorescence at excitation and emission wavelengths of 535 and 590 nm, respectively.

The subject of the next experiment is Panc 10.05 cells. Nature of the experiment: Cytotoxicity assay (resazurin) in Panc 10.05 cells. The note with it: Homo sapiens, Panc1005; Panc 10.05, resazurin; read-out: Cell Viability IC50 Panc 10.05. Format: cell-based. The procedure:
[The source words this procedure for another cell line and reports this cell line under the same test.] as §1, with “A549 (CCL-185; ATCC) and A427 (HTB-53; ATCC), both lung epithelial cell lines were seeded in their respective medium (DMEM/MEM, 10569044/41090101; Gibco) at a cell count of 1500 cells per 100 μL per well in a 96 well edge plate (167425; ThermoFisher). Cells” for “Cells”, “values. Potency of compounds in other cell lines (As-Pc-1, Panc 10.05, A172) was determined in an analogous manner.” for “values.”

Another experiment concerns A172 cells. Nature of the experiment: Cytotoxicity assay (resazurin) in A172 cells. Format: cell-based. To be noted: Homo sapiens, A 172, read-out: Cell Viability IC50 A172. The procedure: [The source words this procedure for another cell line and reports this cell line under the same test.] as §1, with “A549 (CCL-185; ATCC) and A427 (HTB-53; ATCC), both lung epithelial cell lines were seeded in their respective medium (DMEM/MEM, 10569044/41090101; Gibco) at a cell count of 1500 cells per 100 μL per well in a 96 well edge plate (167425; ThermoFisher). Cells” for “Cells”, “values. Potency of compounds in other cell lines (As-Pc-1, Panc 10.05, A172) was determined in an analogous manner.” for “values.”

In the next experiment the test system is As-Pc-1 cells. As to the kind of experiment: Cytotoxicity assay (resazurin) in As-Pc-1 cells. The class given is cell-based. To be noted: Homo sapiens, ASPC1; As-Pc-1, resazurin; read-out: Cell Viability IC50 As-Pc-1. As for the experimental part:
[The source words this procedure for another cell line and reports this cell line under the same test.] as §1, with “A549 (CCL-185; ATCC) and A427 (HTB-53; ATCC), both lung epithelial cell lines were seeded in their respective medium (DMEM/MEM, 10569044/41090101; Gibco) at a cell count of 1500 cells per 100 μL per well in a 96 well edge plate (167425; ThermoFisher). Cells” for “Cells”, “values. Potency of compounds in other cell lines (As-Pc-1, Panc 10.05, A172) was determined in an analogous manner.” for “values.”

The mark [4] stands for this setting: then compound + cisplatin 72 hr, read-out: Cell viability IC50 in A427 cells with 2.5 μM cisplatin: 24 hr cisplatin then compound + cisplatin.
Where [5] appears, read: then compound alone 72 hr, read-out: Cell viability IC50 in A427 cells with 2.5 μM cisplatin: 24 hr cisplatin then compound.

WEE1 kinase enzyme, sequence (P30291 whole entry): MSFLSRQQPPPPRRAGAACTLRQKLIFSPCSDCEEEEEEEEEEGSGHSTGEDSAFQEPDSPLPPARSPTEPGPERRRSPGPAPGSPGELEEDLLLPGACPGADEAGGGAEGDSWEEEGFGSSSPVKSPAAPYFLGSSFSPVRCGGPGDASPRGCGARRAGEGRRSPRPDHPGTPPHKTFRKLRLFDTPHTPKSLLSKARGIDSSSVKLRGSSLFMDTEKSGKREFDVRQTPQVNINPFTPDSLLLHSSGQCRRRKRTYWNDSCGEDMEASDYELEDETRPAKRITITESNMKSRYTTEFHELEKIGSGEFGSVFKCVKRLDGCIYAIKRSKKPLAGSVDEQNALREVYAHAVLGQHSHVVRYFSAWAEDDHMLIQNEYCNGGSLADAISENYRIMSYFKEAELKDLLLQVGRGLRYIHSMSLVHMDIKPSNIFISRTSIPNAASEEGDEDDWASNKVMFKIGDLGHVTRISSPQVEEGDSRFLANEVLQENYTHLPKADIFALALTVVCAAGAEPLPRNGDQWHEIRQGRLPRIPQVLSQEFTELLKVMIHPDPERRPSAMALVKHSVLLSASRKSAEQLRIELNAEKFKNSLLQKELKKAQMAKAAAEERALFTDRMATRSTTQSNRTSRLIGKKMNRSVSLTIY

Regarding `C=CCn1c(=O)c2cnc(Nc3ccc4c(c3)CN(C(=O)CO)CC4)nc2n1-c1cccc(C(C)(C)O)n1` [Example 1.2], the IC50 (as a rule, the concentration at which inhibition is half-maximal) with A549 cells was determined as 842 nM; at WEE1 kinase enzyme, 4 nM; in the experiment on A427 cells [1] it was 269 nM; in the experiment with A427 cells [2] it was 330 nM.

For `C=CCn1c(=O)c2cnc(Nc3ccc4c(c3)CN(C(=O)C(C)(C)O)CC4(C)C)nc2n1-c1cccc(C(C)(C)O)n1` [Example 1.3], the 50% inhibitory concentration (IC50) was 1220 nM in the experiment with A549 cells, < 2 nM at WEE1 kinase enzyme, 483 nM in the experiment with A427 cells [1] and 620 nM in the experiment on A427 cells [2].

In the case of `C=CCn1c(=O)c2cnc(Nc3ccc4c(c3)CN(C(=O)CO)CC4(C)C)nc2n1-c1cccc(C(C)(C)O)n1` [Example 1.6], the IC50 with A549 cells was 972 nM; on WEE1 kinase enzyme, 3.1 nM; with A427 cells [1] it was 277 nM; in the experiment on A427 cells [2] it was 355 nM.

In the case of `CCn1c(=O)c2cnc(Nc3ccc4c(c3)CCNC4)nc2n1-c1cccc(C(C)(C)O)n1` [Example 1.12], the IC50 in the experiment on A549 cells was 1060 nM; on WEE1 kinase enzyme it was 4 nM; in the experiment on A427 cells [2], 1720 nM; in the experiment on A427 cells [3] (setting [4]), 70 nM; in the experiment on A427 cells [3] (setting [5]), 120 nM.

With `CCCn1c(=O)c2cnc(Nc3ccc4c(c3)CNCC4)nc2n1-c1cccc(C(C)(C)O)n1` [Example 1.15], the 50% inhibitory concentration (IC50) in the experiment on A549 cells was found to be 1200 nM; on WEE1 kinase enzyme it was 1.5 nM; in the experiment on A427 cells [2] it was 560 nM.

With `CCn1c(=O)c2cnc(Nc3ccc4c(c3)CN(C)CC4(C)C)nc2n1-c1cccc(C(C)(C)O)n1` [Example 1.16], the IC50 was 1550 nM with A549 cells; 4.5 nM on WEE1 kinase enzyme; 1420 nM in the experiment on A427 cells [2]; < 14 nM with A427 cells [3] (setting [4]); 100 nM in the experiment with A427 cells [3] (setting [5]).

`CC(C)(O)c1cccc(-n2c3nc(Nc4ccc5c(c4)CNCC5)ncc3c(=O)n2C2CC2)n1` [Example 1.17]: the IC50 in the experiment on A549 cells was 9060 nM; on WEE1 kinase enzyme, 9.5 nM; in the experiment with A427 cells [2], 2320 nM.

In the case of `CC(C)n1c(=O)c2cnc(Nc3ccc4c(c3)CCNC4)nc2n1-c1cccc(C(C)(C)F)n1` [Example 1.140], the results for the IC50 with Panc 10.05 cells, on WEE1 kinase enzyme and with A427 cells [2] were 1520 nM, 5 nM and 555 nM, respectively.

With `CC(C)(C)c1cccc(-n2c3nc(Nc4ccc5c(c4)CCNC5)ncc3c(=O)n2C2CC2)n1` [Example 1.143], the IC50 was determined as 2850 nM in the experiment with A549 cells; 1850 nM in the experiment on Panc 10.05 cells; 3620 nM in the experiment on A172 cells; 3 nM on WEE1 kinase enzyme; 470 nM with A427 cells [2]; 270 nM in the experiment on As-Pc-1 cells.

On to `CC(C)(F)c1cccc(-n2c3nc(Nc4ccc5c(c4)CCNC5)ncc3c(=O)n2C2CC2)n1` [Example 1.146], for which the IC50 in the experiment with A549 cells worked out at 6680 nM; in the experiment on Panc 10.05 cells, 5700 nM; in the experiment on A172 cells it was 6820 nM; on WEE1 kinase enzyme, 9 nM; in the experiment on A427 cells [2], 965 nM; with As-Pc-1 cells, 920 nM.

As for `CC(C)(C)c1cc(-n2c3nc(Nc4ccc5c(c4)CCNC5(C)C)ncc3c(=O)n2C2CC2)ccn1` [Example 2.182], the IC50 with A549 cells stood at 7750 nM; in the experiment with Panc 10.05 cells it was 8600 nM; in the experiment on A172 cells, 10600 nM; on WEE1 kinase enzyme it was 62 nM; in the experiment with A427 cells [2], 720 nM; in the experiment on As-Pc-1 cells, 1740 nM.

As to `CC(C)n1c(=O)c2cnc(Nc3ccc4c(c3)CCNC4)nc2n1-c1ccnc(C(C)(C)C)n1` [Example 2.183], the IC50 came out at 1800 nM in the experiment on A549 cells; 805 nM in the experiment on Panc 10.05 cells; 1640 nM in the experiment with A172 cells; 4 nM on WEE1 kinase enzyme; 135 nM in the experiment with A427 cells [2]; 95 nM in the experiment on As-Pc-1 cells.

Turning to `CC(C)n1c(=O)c2cnc(Nc3ccc4c(c3)CNCC4)nc2n1-c1ccnc(C(C)(C)C)n1` [Example 2.184], the IC50 with A549 cells worked out at 655 nM; in the experiment with Panc 10.05 cells, 545 nM; in the experiment with A172 cells, 985 nM; on WEE1 kinase enzyme, 2 nM; in the experiment on A427 cells [2], 90 nM; in the experiment on As-Pc-1 cells it was 85 nM.

Regarding `CC(C)n1c(=O)c2cnc(Nc3ccc4c(c3)CCNC4)nc2n1-c1ccn(C2CC2)n1` [Example 2.188], the IC50 in the experiment on A549 cells turned out to be 910 nM; in the experiment with Panc 10.05 cells, 3100 nM; in the experiment with A172 cells, 1520 nM; on WEE1 kinase enzyme, 53 nM; in the experiment on A427 cells [2] it was 815 nM; with As-Pc-1 cells, 965 nM.
